row,Compound,logP
1,CCC(=O)N(C)C,-0.11
2,CCOC(=O)CN(C(=O)CCl)c1c(CC)cccc1CC,3.6
3,CCOCC1CO1 (centres undefined),0.36
4,CN(C)CCCNC(=O)c1ccccc1,1.27
5,O=c1n[n+]([O-])ccn1C1OC(CO)C(O)C1O (centres undefined),-2.43
6,c1ccc(P(c2ccccc2)c2ccccc2)cc1,5.69
7,Clc1ccc(-c2cc(Cl)c(Cl)cc2Cl)cc1Cl,7.12
8,CCc1ccncc1,1.65
9,CON(C)C(=O)Nc1ccc(C=C(C#N)C#N)cc1,2.19
10,O=C(O)Cc1cccc(Br)c1,2.37
11,Cc1ccc(/C(=C\CN2CCCC2)c2ccccn2)cc1,3.92
12,COc1cc2c(c(OC)c1OC)-c1ccc(O)c(=O)cc1[C@@H](NC(=O)C(F)(F)F)CC2,1.82
13,CCCOC(=O)c1ccc(N)cc1,2.43
14,CCCN(CCC)S(=O)(=O)c1ccc(C(=O)O)cc1,3.21
15,NC(=O)c1cccc([N+](=O)[O-])c1,0.77
16,Cn1cc[nH]c1=S,-0.34
17,C[C@@H]1C[C@H]2[C@@H]3CCC4=CC(=O)C=C[C@]4(C)[C@@]3(F)[C@@H](O)C[C@]2(C)[C@H]1C(=O)CO,2.35
18,CC(=O)c1ccc[nH]1,0.93
19,CCCCCCCOC(=O)C(C(=O)OCCCCCCC)=C1SCCS1,7.6
20,NCc1ccccn1,-0.21
21,CC1(C)Oc2c(O)cccc2C1=O,1.87
22,FC(F)(Cl)Cl,2.16
23,CCCCCCOC(=O)C(CC)C(CO)Cc1cncn1C (centres undefined),2.71
24,Oc1ccc(Cl)c(O)c1,1.8

row,Compound,logP
1,NC(=O)CCl,-0.53
2,O=C(CO)NCc1ccccc1,0.55
3,CC(C)Oc1ccccc1O,2.09
4,CN(C)C(=O)Nc1ccccc1,0.98
5,COC1C(O)C(C)OC(OC2CCC3(C=O)C(CCC4C3CCC3(C)C(C5=CC(=O)OC5)CCC43O)C2)C1O (centres undefined),1.05
6,C1CCCC1,3
7,CCCOc1ccc(O)cc1,2.33
8,COC(=O)c1cnc2n(c1=O)C(C(C)C)CCC2 (centres undefined),0.99
9,CC(=O)NCc1ccccc1,0.95
10,CCNC(=O)c1ccco1,0.61
11,O=[N+]([O-])c1cccc2cc[nH]c12,2.63
12,CCCCCCCCCCCCCC,7.2
13,O=C(CN1CCCCC1)Nc1ccc(Br)cc1,3.57
14,Brc1cccs1,2.75
15,COC(=O)CC(=O)OC,-0.05
16,CC(=O)c1ccc(S(I)=C(N(C)C)N(C)C)cc1 (centres undefined),-0.85
17,CN(C)C(N(C)C)=S(I)c1ccc(F)cc1 (centres undefined),-0.58
18,Cn1c([N+](=O)[O-])cnc1-c1nc2ccccc2n1CCCN1CCOCC1,1.8
19,NC(=O)N/N=C/c1ccc([N+](=O)[O-])o1,0.23
20,OCc1cccnc1,-0.02
21,NCCC(N)C(=O)O (centres undefined),-4.64
22,Cc1ccc(NC(=O)c2ccccc2)c(O)c1,3.08
23,O=C(O)CONC(=O)c1ccccc1,-0.27
24,COC(=O)c1ccccc1C(=O)O,1.13

row,Compound,logP
1,CCN(CC)CCNC(=O)c1ccc(N)cc1,0.88
2,Clc1cccc(-c2ccccc2)c1,4.58
3,C1CCCCCC1,4
4,Cn1c(=O)n(C)c2ccccc21,1.46
5,CC(=O)Oc1cccc(C)c1,2.09
6,CCC(c1ccccc1)c1c(O)c2ccccc2oc1=O (centres undefined),3.62
7,CCC1(CC)C(=O)NC(=O)N(C(C)C)C1=O,2.36
8,CCCC(=O)OC,1.29
9,CCCc1ccncc1,2.1
10,CC(CO)NCc1ccccc1 (centres undefined),1.28
11,CC(C)(C)CO,1.31
12,CC(=O)Nc1ccccc1[N+](=O)[O-],1
13,CCOP(=S)(NC(C)C)Oc1ccccc1C(=O)OC(C)C (centres undefined),4.12
14,O=C(C=Cc1ccccc1)Nc1ccccc1,3.61
15,Clc1ccc(Cl)cc1,3.44
16,ClCCCCl,2
17,C1=CCCC=CCC1,3.16
18,O=C(O)c1ccc(Oc2ccccc2)cc1,3.91
19,O=C(NO)c1ccccc1,0.26
20,COc1ccccc1C=CC(=O)OCCOc1ccc(C=NO)cc1OC,3.56
21,COC(=O)c1ccc(S(I)=C(N(C)C)N(C)C)cc1 (centres undefined),-0.74
22,COc1cccc(C=O)c1O,1.37
23,CCOCCCl,0.98
24,CC(C)(C)C(=O)C(Oc1ccc(Cl)cc1)n1cncn1 (centres undefined),2.77

row,Compound,logP
1,CCCCCCOc1ccc(S(N)(=O)=O)cc1,2.93
2,Nc1ccn(C2CC(O)C(CO)O2)c(=O)n1 (centres undefined),-1.77
3,O=C(O)CCCCCc1ccccc1,3.27
4,O=C(O)COc1ccc(Cl)cc1Cl,2.81
5,CCN(CC)N=Nc1ccc(C(N)=O)cc1,2.26
6,CCN(CC)CCNC(=O)c1cc(I)c(N)cc1OC,3.09
7,COc1cccc2c1C(=O)c1c(O)c3c(c(O)c1C2=O)CC(O)(C(C)O)CC3OC1CC(N2CCOCC2)C(O)C(C)O1 (centres undefined),2.03
8,COC(=O)CCCCCC(=O)OC,1.38
9,CCCCCCn1cc(C)c(=O)[nH]c1=O,1.93
10,O=[N+]([O-])c1cc(Cl)ccc1Cl,3.09
11,Nc1cccc(S(N)(=O)=O)c1,-0.38
12,O=C(O)CCc1ccccc1,1.84
13,COc1c(O)cc2c(c1OC)-c1ccc(SC)c(=O)cc1C(NC(=O)C(F)(F)F)CC2 (centres undefined),2.61
14,N#CCCc1ccccc1,1.72
15,C=C(CC(Cl)(Cl)Cl)c1ccccc1,4.56
16,CCS(=O)(=O)CCn1c([N+](=O)[O-])cnc1C,-0.35
17,CCc1ccc(N)cc1,1.96
18,COc1cccc(C=C(C(N)=O)C(N)=O)c1,0.01
19,Cc1ccc(NC=O)cc1,1.61
20,NNC(=O)c1ccccc1Br,0.26
21,CCCCCCCCOC(=O)c1cc(O)c(O)c(O)c1,3.66
22,CC(=O)[C@@]1(O)CC[C@H]2[C@@H]3CCC4=CC(=O)CC[C@]4(C)[C@H]3CC[C@@]21C,3.17
23,CSc1ccccc1,2.74
24,C=CC(=O)OCC,1.32

row,Compound,logP
1,CCCNC(=O)NO,-0.22
2,Nc1ccc(S(=O)(=O)c2ccc(N)cc2)cc1,0.97
3,CC1C(c2ccccc2)OCCN1N=O (centres undefined),2.09
4,O=C1CN=C(c2ccccc2C(F)(F)F)c2cc([N+](=O)[O-])ccc2N1,2.51
5,CC(=O)C(=Cc1ccc(C)cc1)C(C)=O,2.14
6,O=C(NC(CO)C(O)c1ccc([N+](=O)[O-])cc1)C(Br)Br (centres undefined),1.36
7,Fc1cc(F)c(F)c(F)c1F,2.53
8,NNC(=O)c1ccnc([N+](=O)[O-])c1,-0.76
9,OCc1ccncc1,0.06
10,CCN(CC)CC,1.45
11,CCCCC(NC(Cc1ccccc1)C(=O)N1CCC(OCOC)CC1)C(=O)NC(CC1CCCCC1)C(O)CC(C(=O)NCCNc1noc(N)n1)C(C)C (centres undefined),4.11
12,C=COCC,1.04
13,O=C(Nc1ccccc1)Nc1ccc(Cl)c(Cl)c1,4.7
14,NCCCCNC(=O)c1ccccc1,0.58
15,NC(=O)c1ccc2[nH]ccc2c1,0.87
16,CC1NC(=O)C(CC(=O)NC(Cc2c[nH]c3ccccc23)C(=O)NC(Cc2ccccc2)C(=O)N(C)Cc2ccccc2)NC1=O (centres undefined),3.18
17,CCC1(c2ccccc2)C(=O)NCNC1=O,0.91
18,CN1CCCCC1,1.3
19,CC1OC(OC2CCC3(CO)C4CCC5(C)C(C6=CC(=O)OC6)CCC5(O)C4CCC3(O)C2)C(O)C(O)C1O (centres undefined),-0.62
20,COc1cc2c(cc1OC)C13CCN4CC5CCOC6CC(=O)N2C1C6C5CC43 (centres undefined),0.84
21,CCC(CC)C(=O)NC(CO)C(O)c1ccc([N+](=O)[O-])cc1 (centres undefined),1.71
22,COc1ccccc1C(N)=O,0.86
23,CCCCNC,1.33
24,Cc1ccc(C)[nH]1,1.47

row,Compound,logP
1,CC(C)OC(=O)Nc1cccc(Cl)c1,3.51
2,CCN(CC)C(=O)C(C)Oc1cccc2ccccc12 (centres undefined),3.36
3,Cc1cccc(OCC(=O)NNC(C)C)c1,1.77
4,CC(=O)N(C)N=Nc1ccc(C)cc1,3.23
5,CC(=O)NC(Cc1ccccc1)C(N)=O (centres undefined),-0.04
6,CC(=O)c1cccc(C(C)=O)c1,1.43
7,Cc1cc(N)nc(C)n1,0.39
8,c1ccc2oncc2c1,1.63
9,c1ccc(OP2OCCO2)cc1,1.42
10,c1ccc(-c2nc3ccccc3s2)cc1,4.26
11,c1cc2ccsc2cn1,1.74
12,O=C1C=CCCC1,0.61
13,CC(=O)Nc1cccc(N(C)C)c1,1.29
14,CCCCCCC1(CC)C(=O)NC(=O)NC1=O,2.46
15,O=C1CCC(=O)N1c1ccc(Br)cc1,1.18
16,CCCC(=O)NN,-0.62
17,c1cnc2nccnc2c1,-0.04
18,O=[N+]([O-])O[C@H]1CO[C@H]2[C@@H]1OC[C@H]2O[N+](=O)[O-],1.31
19,CC(C)(C)c1cccc(C(C)(C)C)c1O,4.92
20,c1ccc2c(c1)COC2,1.76
21,O=[N+]([O-])c1cc[n+]([O-])c2ccc(Cl)cc12,1.41
22,O=S(=O)(CCl)c1ccccc1,1.24
23,N#Cc1cccc(N)c1,1.07
24,COc1cccc2c1C(=N)c1c(O)c3c(c(O)c1C2=O)CC(O)(C(O)CO)CC3OC1CC(N2CCOCC2)C(O)C(C)O1 (centres undefined),1.43

row,Compound,logP
1,CCOc1cccc(Cl)n1,2.55
2,Fc1cccc(F)n1,1.17
3,c1ccc(-c2cccs2)cc1,3.74
4,Nc1ncnc2c1ncn2[C@@H]1O[C@H](CO)[C@@H](O)[C@H]1O,-1.05
5,O=[N+]([O-])c1ccc(OCCN2CCOCC2)cc1,1.54
6,CN,-0.57
7,COc1ccc(S(N)(=O)=O)cc1C(=O)NCC1CCCN1Cc1ccc(F)cc1 (centres undefined),2.46
8,c1ccc2[nH]ccc2c1,2.14
9,CCOP(=S)(OCC)Oc1ccc([N+](=O)[O-])cc1,3.83
10,NCCc1c[nH]c2ccc(O)cc12,0.21
11,NC(=O)CCCc1ccccc1,1.41
12,Nc1cccc(F)c1,1.3
13,C=CCC(NC(C)=O)C(N)=O (centres undefined),-0.86
14,OC(c1ccc(Cl)cc1)(c1cncnc1)c1ccccc1Cl (centres undefined),3.6
15,Nc1ccc(S(=O)(=O)Nc2ccccc2)cc1,1.55
16,Clc1cc(-c2ccccc2)c(Cl)c(Cl)c1Cl,6.41
17,CCCn1cnc2c(N)ncnc21,0.74
18,N#Cc1cnc2ccccc2c1,1.57
19,Cc1ccc(S(I)=C(N(C)C)N(C)C)c([N+](=O)[O-])c1 (centres undefined),0.23
20,CCCCCCOC(=O)c1cc(O)c(O)c(O)c1,3.17

# From the OPERA property sets (Mansouri et al. 2018)
